Test results: patent publication US6608086B2, “Dihydropyridines and new uses thereof” (Synaptic Pharmaceutical Corporation, priority 1993, dated 2003)
Structures can show the parent of a compound that is named as a salt. Where two headings read alike, the source gives them in different places.

Legend:
[1] = biological target: T1, α1B Human Adrenergic Receptor (Homo sapiens, UniProt P35368); assay: Radioligand binding, [3H]prazosin, cloned human α1B adrenergic receptor
T1 construct: The entire coding region of α1B (1563 bp); expressed in transfected cells
T1 sequence (P35368 1-520): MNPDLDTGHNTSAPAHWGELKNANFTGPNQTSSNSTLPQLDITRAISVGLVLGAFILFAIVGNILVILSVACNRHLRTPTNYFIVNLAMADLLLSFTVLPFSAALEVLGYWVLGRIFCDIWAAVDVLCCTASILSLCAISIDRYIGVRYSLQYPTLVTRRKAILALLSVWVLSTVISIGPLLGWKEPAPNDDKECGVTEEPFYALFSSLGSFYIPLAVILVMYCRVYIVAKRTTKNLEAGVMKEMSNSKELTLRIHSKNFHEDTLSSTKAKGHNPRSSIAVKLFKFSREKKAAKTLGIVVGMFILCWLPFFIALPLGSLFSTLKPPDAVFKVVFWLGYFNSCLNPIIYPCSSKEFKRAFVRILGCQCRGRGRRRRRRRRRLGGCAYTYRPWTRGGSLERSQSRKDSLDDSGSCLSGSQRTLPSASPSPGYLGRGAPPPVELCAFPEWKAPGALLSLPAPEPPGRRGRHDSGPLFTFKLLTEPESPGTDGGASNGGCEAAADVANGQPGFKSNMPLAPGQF
How it was run: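 [3H]prazosin (0.5 nM) binding was run for 20 min at 37° C in pH 7.5 Tris/MgCl2/ascorbate buffer on membranes of LM(tk−) cells stably expressing the cloned receptor. Filtration through GF/B ended the reaction; 10 μM phentolamine gave nonspecific binding.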

[2] = biological target: T2, α2A receptor (Homo sapiens, UniProt P08913); assay: Competition binding, [3H]rauwolscine, human α2A receptor
T2 construct: host or cells: LM(tk-) cells, line L-α2A
T2 sequence (P08913 1-465): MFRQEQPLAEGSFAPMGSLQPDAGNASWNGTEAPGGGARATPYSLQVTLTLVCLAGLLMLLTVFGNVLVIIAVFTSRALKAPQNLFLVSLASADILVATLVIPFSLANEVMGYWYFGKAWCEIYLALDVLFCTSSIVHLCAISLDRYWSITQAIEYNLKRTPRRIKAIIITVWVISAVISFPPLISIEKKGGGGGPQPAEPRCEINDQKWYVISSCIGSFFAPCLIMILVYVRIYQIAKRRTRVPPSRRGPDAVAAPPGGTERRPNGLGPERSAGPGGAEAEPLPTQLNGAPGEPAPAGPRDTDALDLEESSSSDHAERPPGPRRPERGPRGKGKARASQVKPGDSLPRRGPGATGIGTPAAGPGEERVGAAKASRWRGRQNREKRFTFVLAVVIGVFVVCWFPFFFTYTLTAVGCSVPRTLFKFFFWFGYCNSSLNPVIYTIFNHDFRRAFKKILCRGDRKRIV
How it was run: (§1)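 LM(tk−) lysates, stable α2A/α2B/α2C transfectants; 25 mM glycylglycine pH 7.6 (RT). [3H]rauwolscine 0.5 nM, equilibrium competition; NSB 10 μM phentolamine. GF/B filtration, cell harvester.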

[3] = biological target: T3, α2B receptor (Homo sapiens, UniProt P18089); assay: Competition binding, [3H]rauwolscine, human α2B receptor
T3 construct: host or cells: LM(tk-) cells, line L-NGC-α2B
T3 sequence (P18089 1-450): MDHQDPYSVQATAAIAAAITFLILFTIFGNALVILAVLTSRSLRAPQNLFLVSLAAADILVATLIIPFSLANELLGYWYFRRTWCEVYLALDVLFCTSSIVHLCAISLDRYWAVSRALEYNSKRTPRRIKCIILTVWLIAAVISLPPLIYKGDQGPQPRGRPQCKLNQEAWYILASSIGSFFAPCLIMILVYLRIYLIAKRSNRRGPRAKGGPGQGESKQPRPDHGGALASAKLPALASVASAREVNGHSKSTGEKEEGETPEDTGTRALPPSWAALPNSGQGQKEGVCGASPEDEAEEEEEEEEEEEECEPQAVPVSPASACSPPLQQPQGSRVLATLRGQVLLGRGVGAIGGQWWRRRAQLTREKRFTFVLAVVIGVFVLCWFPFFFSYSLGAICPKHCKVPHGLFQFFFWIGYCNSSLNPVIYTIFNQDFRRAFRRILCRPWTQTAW
How it was run: as §1

[4] = cloned human α1B receptor, LM(tk-) cell membranes, read-out: PKi alpha-1 1b (converted)
[5] = [3H]rauwolscine, human α2A receptor, LM(tk-) cells, read-out: PKi alpha-2 2a (converted)
[6] = [3H]rauwolscine, human α2B receptor, LM(tk-) cells, read-out: PKi alpha-2 2b (converted)
[7] = PKi alpha-1 1b, cloned human receptor, LM(tk-) cell membranes, mean
[8] = [3H]rauwolscine, human receptor, LM(tk-) cell lysates, mean, read-out: PKi alpha-2 2a (converted)
[9] = PKi alpha-2 2b, [3H]rauwolscine, human receptor, LM(tk-) cell lysates, mean
[10] = cloned human receptor in LM(tk-) cell membranes, SEM and n in lines below, read-out: pKi alpha-1 1b (converted)
[11] = [3H]rauwolscine, LM(tk-) cell line L-α2A, SEM and n in lines below, read-out: pKi alpha-2 2a (converted)
[12] = [3H]rauwolscine, LM(tk-) cell line L-NGC-α2B, SEM and n in lines below, read-out: pKi alpha-2 2b (converted)
[13] = PKi alpha-1 1b, cloned human α1B receptor, LM(tk-) cell membranes
[14] = PKi alpha-2 2b, [3H]rauwolscine, human α2B receptor, LM(tk-) cells
[15] = cloned human receptor, LM(tk-) cell membranes, mean, read-out: PKi alpha-1 1b (converted)
[16] = [3H]rauwolscine, human receptor, LM(tk-) cell lysates, mean, read-out: PKi alpha-2 2b (converted)

Q: For `CCOC(=O)C1(c2ccccc2)CCN(CCCNC(=O)C2=C(COCC(F)(F)F)NC(C)=C(C(N)=O)C2c2ccc([N+](=O)[O-])cc2)CC1` (centres unmarked) [Example 243, 5-Carboxamido-3-(N-(3-(4-ethoxycarbonyl-4-phenylpiperidin-1yl)propyl))carboxamido-2-((2,2,2-trifluoroethyl)oxy)methyl-1,4dihydro-6-methyl-4-(4-nitro)phenylpyridine], which Ki [1, 4] is on record?
A: Its Ki is 759 nM.

Q: And the Ki [2, 5]?
A: Its Ki is 2240 nM.

Q: And the Ki [3, 6]?
A: The Ki was 977 nM.

Q: With `CC(=O)C1=C(C)NC(CCCCN)=C(C(=O)NCCCN2CCC(c3ccccc3)(c3ccccc3)CC2)C1c1ccc([N+](=O)[O-])cc1` (centres unmarked) [Example 176, 5-Acetyl-2-(4-aminobutyl)-1,4-dihydro-6-methyl-4-(4-nitrophenyl)-3-{N-[3-(4,4-diphenylpiperidin-1-yl)propyl]}carboxamidopyridine] as the compound, how does the melting point read?
A: The melting point was 76 to 79 °C.

Q: What about the Ki [1, 7] of the same compound?
A: The Ki was 158 nM.

Q: And the Ki [2, 8]?
A: Its Ki is 977 nM.

Q: What about the Ki [3, 9] of the same compound?
A: Its Ki is 1200 nM.

Q: For `COC(=O)C1=C(C)NC(C)=C(C(=O)NCCCN2CCC(c3ccccc3)CC2)C1c1ccc([N+](=O)[O-])cc1` (single isomer, unassigned; (+)) [(+)-45, 1,4-Dihydro-3-methoxycarbonyl-2,6-dimethyl-4-(4-nitrophenyl)-5-{N-[3-(4-phenylpiperidin-1-yl)propyl]}carboxamidopyridine hydrochloride hemihydrate], which Ki [1, 10] is on record?
A: The Ki was 57.5 nM.

Q: What about the Ki [2, 11] of the same compound?
A: The Ki was 240 nM.

Q: And the Ki [3, 12]?
A: Its Ki is 91.2 nM.

Q: What does the source list for `COC(=O)C1(c2ccccc2)CCN(CCCNC(=O)C2=C(COCCCN)NC(C)=C(C(C)=O)C2c2ccc([N+](=O)[O-])cc2)CC1` (centres unmarked) [Example 241, 5-Acetyl-2-((3-aminopropyl)oxy)methyl-1,4-dihydro-3-(N-(3-(4-methoxycarbonyl-4-phenylpiperidin-1-yl)propyl))carboxamido-6-methyl-4-(4-nitro)phenylpyridine]?
A: melting point: 70 °C (dec.); Ki [1, 4]: 490 nM; Ki [2]: 1580 nM; Ki ([3]; PKi alpha-2 2b): 1170 nM

Q: Which results are given for `CCC1=C(C(=O)OCCO)C(c2ccc([N+](=O)[O-])cc2)C(C(=O)NCCCN2CCC(c3ccccc3)(c3ccccc3)CC2)=C(COC)N1` (centres unmarked) [Example 246]?
A: melting point: 73 °C (dec.); Ki [1, 13]: 174 nM; Ki [2, 5]: 676 nM; Ki [3, 14]: 309 nM

Q: With `COC(=O)C1=C(C)NC(C)=C(C(=O)NCCCN2CCC(c3ccccc3)CC2)C1c1ccc(C)cc1` (centres unmarked) [Example 31, 1,4-Dihydro-3-methoxycarbonyl-2,6-dimethyl-4-(4-methylphenyl)-5-(N-(3-(4-phenylpiperidin-1-yl)propyl)carboxamido)pyridine] as the compound, how does the melting point read?
A: Its melting point is 139 to 139.5 °C.

Q: And the Ki [1, 10]?
A: The Ki was 20.4 nM.

Q: And the Ki [2, 11]?
A: The Ki was 158 nM.

Q: What about the Ki [3, 12] of the same compound?
A: The Ki was 138 nM.

Q: Which melting point does the source give for `CCNC(=O)C1=C(CC)NC(COCCN)=C(C(=O)NCCCN2CCC(C(=O)OCC)(c3ccccc3)CC2)C1c1ccc([N+](=O)[O-])cc1` (centres unmarked) [Example 192, 2-[(2-Aminoethoxy)methyl]-3-{N-[3-(4-ethoxycarbonyl-4-phenyl-piperidin-1-yl)propyl]}carboxamido-1,4-dihydro-6-ethyl-5-(N-ethyl)carboxamido-4-(4-nitrophenyl)pyridine] here?
A: Its melting point is 112 to 114 °C.

Q: What about the Ki [1, 15] of the same compound?
A: Its Ki is 1860 nM.

Q: And the Ki [2, 8]?
A: Its Ki is 3720 nM.

Q: What about the Ki [3, 16] of the same compound?
A: The Ki was 6170 nM.

Q: What does the source list for `CCOC(=O)C1(c2ccccc2)CCN(CCCNC(=O)C2=C(COCCN)NC(CC)=C(C(=O)O)C2c2ccc([N+](=O)[O-])cc2)CC1` (centres unmarked) [Example 196, 2-[(2-Aminoethoxy)methyl]-3-{N-[3-(4-ethoxycarbonyl-4-phenylpiperidin-1-yl)propyl]}carboxamido-1,4-dihydro-6-ethyl-4-(4-nitrophenyl)pyridine-5-carboxylic Acid]?
A: melting point: 103 to 105 °C; Ki [1, 15]: 3630 nM; Ki [2, 8]: 8320 nM; Ki [3, 16]: 4680 nM

Q: For `CC(=O)C1=C(C)NC(COCCN)=C(C(=O)NCCCN2CCC(c3ccccc3)(c3ccccc3)CC2)C1c1ccc(F)cc1` (centres unmarked) [Example 242, 5-Acetyl-2-((2-aminoethyl)oxy)methyl-4-(4-fluoro)phenyl-1,4-dihydro-6-methyl-3-(N-(3-(4,4-diphenylpiperidin-1-yl)propyl))carboxamidopyridine], which melting point is on record?
A: The melting point was 75 °C (dec.).

Q: And the Ki [1, 13]?
A: Its Ki is 83.2 nM.

Q: What about the Ki [2, 5] of the same compound?
A: The Ki was 1410 nM.

Q: And the Ki [3, 14]?
A: Its Ki is 933 nM.

Q: Which Ki [1, 4] does the source give for `COC(=O)C1(c2ccccc2)CCN(CCCNC(=O)C2=C(COCCN)NC(C)=C(C(C)=O)C2c2ccc(F)cc2)CC1` (centres unmarked) [Example 245, 5-Acetyl-2-((2-aminoethyl)oxy)methyl-4-(4-fluoro)phenyl-1,4-dihydro-3-(N-3-(4-methoxycarbonyl-4-phenylpiperidin-1-yl)propyl)carboxamido-6-methylpyridine] here?
A: Its Ki is 355 nM.

Q: And the Ki [2, 5]?
A: Its Ki is 1050 nM.

Q: What about the Ki [3, 6] of the same compound?
A: Its Ki is 2750 nM.

Q: For `CCOC(=O)C1(c2ccccc2)CCN(CCCNC(=O)C2=C(COCCN)NC(CC)=C(C(=O)NC)C2c2ccc([N+](=O)[O-])cc2)CC1` (centres unmarked) [Example 194, 2-[(2-Aminoethoxy)methyl]-3-{N-[3-(4-ethoxycarbonyl-4-phenylpiperidin-1-yl)propyl]}carboxamido-1,4-dihydro-6-ethyl-5-(N-methyl) carboxamido-4-(4-nitrophenyl) pyridine], which melting point is on record?
A: The melting point was 51 to 53 °C.

Q: And the Ki [1, 15]?
A: The Ki was 2690 nM.

Q: And the Ki [2, 8]?
A: Its Ki is 3160 nM.

Q: And the Ki [3, 16]?
A: The Ki was 5750 nM.

Q: Which Ki [1, 7] does the source give for `CC(=O)C1=C(C)NC(COCCN)=C(C(=O)NCCCN2CCC(c3ccccc3)(c3ccccc3)CC2)C1c1ccc([N+](=O)[O-])cc1` (centres unmarked) [Example 237, 5-Acetyl-2-((2-aminoethyl)oxy)methyl-1,4-dihydro-6-methyl-4-(4-nitro)phenyl 3-(N-(3-(4,4-diphenylpiperidin-1-yl)propyl)) carboxamidopyridine] here?
A: The Ki was 200 nM.

Q: What about the Ki [2, 8] of the same compound?
A: The Ki was 794 nM.

Q: And the Ki [3, 9]?
A: The Ki was 851 nM.

Q: With `CCC1=C(C(=O)NC)C(c2ccc([N+](=O)[O-])cc2)C(C(=O)NCCCN2CCC(C(=O)OC)(c3ccccc3)CC2)=C(CC)N1` (centres unmarked) [Example 179, 2,6-Diethyl-1,4-dihydro-3-{N-[3-(4-methoxycarbonyl-4-phenyl-piperidin-1-yl)propyl]}carboxamido-5-(N-methyl)carboxamido-4-(4-nitrophenyl)pyridine] as the compound, how does the Ki [1, 15] read?
A: The Ki was 1070 nM.

Q: And the Ki [2]?
A: The Ki was 3310 nM.

Q: And the Ki ([3]; PKi alpha-2 2b)?
A: Its Ki is 1860 nM.

Q: For `COc1cc2c(c(OC)c1)CCN(CCCNC(=O)C1=C(c3ccoc3)NC(C)=C(C(N)=O)C1c1ccc([N+](=O)[O-])cc1)C2.Cl.O` (centres unmarked) [Example 67], which “pKi alpha-1 1b” value ([1]; cloned human receptor in LM(tk-) cell membranes, SEM and n in lines below) is on record?
A: Its value is 6.18.

Q: And the “pKi alpha-2 2a” value ([2]; [3H]rauwolscine, LM(tk-) cell line L-α2A, SEM and n in lines below)?
A: The value was 6.45.

Q: What about the “pKi alpha-2 2b” value ([3]; [3H]rauwolscine, LM(tk-) cell line L-NGC-α2B, SEM and n in lines below) of the same compound?
A: The value was 5.79.
